Experimental data from patent US6559182B1 (Purcell Jojoba International, LLC, priority 2001, dated 2003).

Test system: Herpes simplex (HSV1 facial herpes or HSV2 genital herpes)
Assay: Survey of Herpes simplex patients who treated themselves with jojoba oil esters
Type: in vivo, human
Conditions: jojoba oil esters compared with the previously used medication
Source text: The study included male and female subjects with a history of multiple Herpes simplex infections that were either HSV1 facial herpes or HSV2 genital herpes. There was non intentional discrimination as to age, sex, and educational or ethnic background.
In this study 57 subjects compared jojoba oil ester treatment with previously used remedies, including no treatment at all. Each subject was given directions as to how to apply the jojoba oil esters. Subjects were advised to begin treatment at the very earliest warning symptoms of burning, itching or tingling that precede a new cold sore outbreak. They were directed to apply one drop of the solution to the herpes area with their finger, then reapply it again in 15 minutes and at mealtimes and bedtime for three days.
The study utilized a survey sheet that included the average number of outbreaks per year in the past, time and date of this new outbreak and how many hours after the first symptoms before treatment was started. Subjects reported the number of doses applied, and the number of days from the onset until they were free of symptoms. They also rated the effectiveness of this treatment compared to previous remedies they had used.

| Compound | % reporting jojoba Ester more Effective | JOE much more effective (number of patients who had used this Rx) | JOE a little More effective (number of patients who had used this Rx) | JOE a little less effective (number of patients who had used this Rx) | JOE avg effective (number of patients who had used this Rx) |
| --- | --- | --- | --- | --- | --- |
| CC[C@H]1OC(=O)[C@H](C)[C@@H](O[C@H]2C[C@@](C)(OC)[C@@H](O)[C@H](C)O2)[C@H](C)[C@@H](O[C@@H]2O[C@H](C)C[C@H](N(C)C)[C@H]2O)[C@](C)(O)C[C@@H](C)CN(C)[C@H](C)[C@@H](O)[C@]1(C)O [Zithromax] | 100% | 1 | – | – | – |
| CC(=O)Oc1ccccc1C(=O)O [Aspirin] | 100% | 1 | – | – | – |
| Nc1nc2c(ncn2COCCO)c(=O)[nH]1 [Acyclovir/Zovirax, Acyclovir] | 84% | 14 | 2 | 1 | 2 |
| CC(C)[C@H](N)C(=O)OCCOCn1cnc2c(=O)[nH]c(N)nc21 [Valtrex] | 100% | 1 | 1 | – | – |
| OO [Hydrogen peroxide] | 100% | 1 | 1 | – | – |
| C[S+](C)[O-] [DMSO] | 100% | – | 1 | – | – |
| NCCCC[C@H](N)C(=O)O [Lycine] | 67% | 4 | – | – | 2 |
| CC(=O)OCC(CCn1cnc2cnc(N)nc21)COC(C)=O [Famavir] | 100% | 1 | – | – | – |
